# Test system: Oxaliplatin (OXP)-induced cold allodynia in male C57-mice
# Assay: Oxaliplatin (OXP)-induced cold allodynia, acetone test
# Format: in vivo, mouse
# Description: In Vivo Assays. C57-mice (≈30g) (Harlam, Holland) were used for the study. All experiments were approved by the Institutional Animal and Ethical Committee of the Universidad Miguel Hernandez where experiments were conducted and they were in accordance with the guidelines of the Economic European Community and the Committee for Research and Ethical Issues of the International Association for the Study of Pain. All parts of the study concerning animal care were performed under the control of veterinarians.
# Cold allodynia. Oxaliplatin (Tocris) was dissolved in water with gentle warming and was […] injected on days 1, 3 and 5 at a 6 mg/kg dose. The day 7 after administration, experiments were performed. Together with Oxaliplatin injection, saline and a 5% Mannitol solution were intraperitoneally injected to prevent kidney damage and dehydration. The Compound 14 stock was prepared in DMSO (Sigma-Aldrich) and diluted in saline for injections. Compounds at different doses (0.1 to 1 μg) was injected into the plantar surface (25 μL) of the right hind paw of mice. Cold chemical thermal sensitivity was assessed using acetone drop method. Mice were placed in a metal mesh cage and allowed to habituate for approximately 30 minutes in order to acclimatize them. Freshly dispensed acetone drop (10 μL) was applied gently on to the mid plantar surface of the hind paw. Cold chemical sensitive reaction with respect to paw licking was recorded as a positive response (nociceptive pain response). The responses were measured for 20-s with a digital stopwatch. For each measurement, the paw was sampled twice and the mean was calculated. The interval between each application of acetone was approximately 5 minutes.
# Cold Allodynia. […] Both acute and chronic OXP-induced cold hypersensitivity have been reproduced in rats and correlated with TRPM8 expression and function. Mizoguchi et al. reported that, in a rodent model, acute cold allodynia after OXP injection was alleviated by the TRPM8 blockers N-(2-aminoethyl)-N-[4-(benzyloxy)-3-methoxybenzyl]-N′-(1S)-1-(phenyl) ethyl] urea and TC-I 2014. According to these findings, the effect of Compound 14 was investigated in an OXP-induced cold allodynia model, using acetone for cooling stimulation. Considering that the cold pain threshold is increased from ≈12° C. to ≈26° C. in OXP-treated patients, acetone stimulation is considered to evoke pain in OXP-treated mice.
# The activity of Compound 14 was evaluated 7 days after three intraperitoneal injections of OXP (6 mg/kg) in C57/BL6 mice, when cold allodynia had developed.
# [1] = 0.1 and 1 μg single administration, day 7 after OXP
smiles,measurement,setting,value
"O=C(NC1CCC2(CCCC2)CC1)c1ccc(-c2ccccc2)cc1 [Compound 14, N-(spiro[4.5]decan-8-yl)-[1,1′-biphenyl]-4-carboxamide]",time after administration at which attenuated cold allodynia is evident,[1],15 min
same,time after administration of maximum inhibition of cold allodynia,[1],30 min
same,effect on OXP effects at 60 minutes,60 minutes after administration,significantly suppresses OXP effects
same,effect on oxaliplatin-induced cold allodynia,C57/BL6 mice,able to attenuate oxaliplatin-induced cold allodynia in vivo

# Source: patent US20220313629A1, “TRANSIENT POTENTIAL MELASTATIN 8 (TRPM8) ANTAGONISTS AND RELATED METHODS” (MARSHALL UNIVERSITY RESEARCH CORPORATION, priority 2019, published 2022)
